Assay results as given in PubChem BioAssay (NCI).
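Briefly, cells in 96-well plates were exposed to five compound concentrations for 48 h, and endpoints were estimated by linear interpolation. TGI is the concentration that stops growth completely.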

How the values were obtained:
Test in all cases: NCI tumour cell line growth inhibition, 48 h
A498 renal = system: A498 renal
A549 NSCLC = system: A549 NSCLC
CAKI-1 renal = system: CAKI-1 renal
CCRF-CEM leukemia = system: CCRF-CEM leukemia
COLO 205 colon = system: COLO 205 colon
DLD-1 colon = system: DLD-1 colon
DMS 114 small cell lung = system: DMS 114 small cell lung
DMS 273 small cell lung = system: DMS 273 small cell lung
EKVX NSCLC = system: EKVX NSCLC
HCC-2998 colon = system: HCC-2998 colon
HCT-116 colon = system: HCT-116 colon
HCT-15 colon = system: HCT-15 colon
HL-60(TB) leukemia = system: HL-60(TB) leukemia
HOP-18 NSCLC = system: HOP-18 NSCLC
HOP-62 NSCLC = system: HOP-62 NSCLC
HOP-92 NSCLC = system: HOP-92 NSCLC
HT29 colon = system: HT29 colon
IGROV1 ovarian = system: IGROV1 ovarian
K-562 leukemia = system: K-562 leukemia
KM12 colon = system: KM12 colon
KM20L2 colon = system: KM20L2 colon
LOX IMVI melanoma = system: LOX IMVI melanoma
M19-MEL melanoma = system: M19-MEL melanoma
MALME-3M melanoma = system: MALME-3M melanoma
MCF7 breast = system: MCF7 breast
MOLT-4 leukemia = system: MOLT-4 leukemia
NCI-H226 lung = system: NCI-H226 lung
NCI-H23 lung = system: NCI-H23 lung
NCI-H460 lung = system: NCI-H460 lung
NCI-H522 lung = system: NCI-H522 lung
NCI/ADR-RES ovarian = system: NCI/ADR-RES ovarian
OVCAR-3 ovarian = system: OVCAR-3 ovarian
OVCAR-4 ovarian = system: OVCAR-4 ovarian
OVCAR-5 ovarian = system: OVCAR-5 ovarian
OVCAR-8 ovarian = system: OVCAR-8 ovarian
P388 leukemia = system: P388 leukemia
P388/ADR leukemia = system: P388/ADR leukemia
RPMI-8226 leukemia = system: RPMI-8226 leukemia
SF-268 CNS = system: SF-268 CNS
SF-295 CNS = system: SF-295 CNS
SF-539 CNS = system: SF-539 CNS
SK-MEL-2 melanoma = system: SK-MEL-2 melanoma
SK-MEL-28 melanoma = system: SK-MEL-28 melanoma
SK-MEL-5 melanoma = system: SK-MEL-5 melanoma
SK-OV-3 ovarian = system: SK-OV-3 ovarian
SN12C renal = system: SN12C renal
SN12K1 renal = system: SN12K1 renal
SNB-19 CNS = system: SNB-19 CNS
SNB-75 CNS = system: SNB-75 CNS
SNB-78 CNS = system: SNB-78 CNS
SW-620 colon = system: SW-620 colon
U251 CNS = system: U251 CNS
UACC-257 melanoma = system: UACC-257 melanoma
UACC-62 melanoma = system: UACC-62 melanoma
UO-31 renal = system: UO-31 renal
XF 498 CNS = system: XF 498 CNS
786-0 renal = system: 786-0 renal
ACHN renal = system: ACHN renal
LXFL 529 NSCLC = system: LXFL 529 NSCLC
M14 melanoma = system: M14 melanoma
RXF 393 renal = system: RXF 393 renal
RXF-631 renal = system: RXF-631 renal
SR leukemia = system: SR leukemia
TK-10 renal = system: TK-10 renal

SMILES: CCCCC(NC(=O)CC)C(=O)O (stereo unspecified)
- TGI (A498 renal): > 100 µM
- TGI (A549 NSCLC): > 100 µM
- TGI (CAKI-1 renal): > 100 µM
- TGI (CCRF-CEM leukemia): > 100 µM
- TGI (COLO 205 colon): > 100 µM
- TGI (DLD-1 colon): > 100 µM
- TGI (DMS 114 small cell lung): > 100 µM
- TGI (DMS 273 small cell lung): > 100 µM
- TGI (EKVX NSCLC): > 100 µM
- TGI (HCC-2998 colon): > 31.6 µM
- TGI (HCT-116 colon): > 100 µM
- TGI (HCT-15 colon): > 100 µM
- TGI (HL-60(TB) leukemia): > 100 µM
- TGI (HOP-18 NSCLC): > 100 µM
- TGI (HOP-62 NSCLC): > 100 µM
- TGI (HOP-92 NSCLC): > 100 µM
- TGI (HT29 colon): > 100 µM
- TGI (IGROV1 ovarian): > 100 µM
- TGI (K-562 leukemia): > 100 µM
- TGI (KM12 colon): > 100 µM
- TGI (KM20L2 colon): > 100 µM
- TGI (LOX IMVI melanoma): > 100 µM
- TGI (M19-MEL melanoma): > 100 µM
- TGI (MALME-3M melanoma): > 100 µM
- TGI (MCF7 breast): > 100 µM
- TGI (MOLT-4 leukemia): > 100 µM
- TGI (NCI-H226 lung): > 100 µM
- TGI (NCI-H23 lung): > 100 µM
- TGI (NCI-H460 lung): > 100 µM
- TGI (NCI-H522 lung): > 100 µM
- TGI (NCI/ADR-RES ovarian): > 100 µM
- TGI (OVCAR-3 ovarian): > 100 µM
- TGI (OVCAR-4 ovarian): > 100 µM
- TGI (OVCAR-5 ovarian): > 100 µM
- TGI (OVCAR-8 ovarian): > 100 µM
- TGI (P388 leukemia): > 100 µM
- TGI (P388/ADR leukemia): > 100 µM
- TGI (RPMI-8226 leukemia): > 100 µM
- TGI (SF-268 CNS): > 100 µM
- TGI (SF-295 CNS): > 100 µM
- TGI (SF-539 CNS): > 100 µM
- TGI (SK-MEL-2 melanoma): > 100 µM
- TGI (SK-MEL-28 melanoma): > 100 µM
- TGI (SK-MEL-5 melanoma): > 100 µM
- TGI (SK-OV-3 ovarian): > 100 µM
- TGI (SN12C renal): > 100 µM
- TGI (SN12K1 renal): > 100 µM
- TGI (SNB-19 CNS): > 100 µM
- TGI (SNB-75 CNS): > 100 µM
- TGI (SNB-78 CNS): > 100 µM
- TGI (SW-620 colon): > 100 µM
- TGI (U251 CNS): > 100 µM
- TGI (UACC-257 melanoma): > 100 µM
- TGI (UACC-62 melanoma): > 100 µM
- TGI (UO-31 renal): > 100 µM
- TGI (XF 498 CNS): > 100 µM

SMILES: O=C(CCc1nnc2s/c(=C\c3ccc4c(c3)OCO4)c(=O)n12)Nc1cc(Cl)ccc1Cl
- TGI (786-0 renal): > 100 µM
- TGI (A498 renal): > 100 µM
- TGI (A549 NSCLC): > 100 µM
- TGI (ACHN renal): > 100 µM
- TGI (CAKI-1 renal): > 100 µM
- TGI (CCRF-CEM leukemia): > 100 µM
- TGI (COLO 205 colon): > 100 µM
- TGI (DLD-1 colon): > 100 µM
- TGI (DMS 114 small cell lung): > 100 µM
- TGI (DMS 273 small cell lung): > 100 µM
- TGI (EKVX NSCLC): > 100 µM
- TGI (HCC-2998 colon): > 100 µM
- TGI (HCT-116 colon): > 78.8 µM
- TGI (HCT-15 colon): > 56.6 µM
- TGI (HL-60(TB) leukemia): > 100 µM
- TGI (HOP-18 NSCLC): > 100 µM
- TGI (HOP-62 NSCLC): > 100 µM
- TGI (HOP-92 NSCLC): > 100 µM
- TGI (HT29 colon): > 100 µM
- TGI (IGROV1 ovarian): > 100 µM
- TGI (K-562 leukemia): > 100 µM
- TGI (KM12 colon): > 100 µM
- TGI (KM20L2 colon): > 100 µM
- TGI (LOX IMVI melanoma): > 100 µM
- TGI (LXFL 529 NSCLC): > 100 µM
- TGI (M14 melanoma): > 100 µM
- TGI (M19-MEL melanoma): > 100 µM
- TGI (MALME-3M melanoma): > 100 µM
- TGI (MOLT-4 leukemia): > 100 µM
- TGI (NCI-H226 lung): > 100 µM
- TGI (NCI-H23 lung): > 100 µM
- TGI (NCI-H460 lung): > 100 µM
- TGI (NCI-H522 lung): > 100 µM
- TGI (OVCAR-3 ovarian): > 100 µM
- TGI (OVCAR-4 ovarian): > 100 µM
- TGI (OVCAR-5 ovarian): > 100 µM
- TGI (OVCAR-8 ovarian): > 100 µM
- TGI (RPMI-8226 leukemia): > 100 µM
- TGI (RXF 393 renal): > 100 µM
- TGI (RXF-631 renal): > 100 µM
- TGI (SF-268 CNS): > 100 µM
- TGI (SF-295 CNS): > 100 µM
- TGI (SF-539 CNS): > 100 µM
- TGI (SK-MEL-2 melanoma): > 100 µM
- TGI (SK-MEL-28 melanoma): > 100 µM
- TGI (SK-MEL-5 melanoma): > 100 µM
- TGI (SK-OV-3 ovarian): > 100 µM
- TGI (SN12C renal): > 100 µM
- TGI (SNB-19 CNS): > 100 µM
- TGI (SNB-75 CNS): > 100 µM
- TGI (SNB-78 CNS): > 100 µM
- TGI (SR leukemia): > 100 µM
- TGI (SW-620 colon): > 60.5 µM
- TGI (TK-10 renal): > 100 µM
- TGI (U251 CNS): > 100 µM
- TGI (UACC-257 melanoma): > 100 µM
- TGI (UACC-62 melanoma): > 100 µM
- TGI (UO-31 renal): > 100 µM
- TGI (XF 498 CNS): > 100 µM

SMILES: CC1C(=O)C(C)C(c2cccs2)N(N=O)C1c1cccs1 (stereo unspecified)
- TGI (A498 renal): > 100 µM
- TGI (A549 NSCLC): > 100 µM
- TGI (CAKI-1 renal): > 100 µM
- TGI (CCRF-CEM leukemia): > 100 µM
- TGI (COLO 205 colon): > 100 µM
- TGI (DLD-1 colon): > 100 µM
- TGI (DMS 114 small cell lung): > 100 µM
- TGI (DMS 273 small cell lung): > 100 µM
- TGI (EKVX NSCLC): > 100 µM
- TGI (HCC-2998 colon): > 100 µM
- TGI (HCT-116 colon): > 100 µM
- TGI (HCT-15 colon): > 100 µM
- TGI (HL-60(TB) leukemia): > 100 µM
- TGI (HOP-62 NSCLC): > 100 µM
- TGI (HOP-92 NSCLC): > 100 µM
- TGI (HT29 colon): > 100 µM
- TGI (IGROV1 ovarian): > 100 µM
- TGI (K-562 leukemia): > 100 µM
- TGI (KM12 colon): > 100 µM
- TGI (KM20L2 colon): > 100 µM
- TGI (LOX IMVI melanoma): > 100 µM
- TGI (M19-MEL melanoma): > 100 µM
- TGI (MALME-3M melanoma): > 19.7 µM
- TGI (MCF7 breast): > 100 µM
- TGI (MOLT-4 leukemia): > 100 µM
- TGI (NCI-H226 lung): > 100 µM
- TGI (NCI-H23 lung): > 100 µM
- TGI (NCI-H460 lung): > 100 µM
- TGI (NCI-H522 lung): > 100 µM
- TGI (NCI/ADR-RES ovarian): > 100 µM
- TGI (OVCAR-3 ovarian): > 100 µM
- TGI (OVCAR-4 ovarian): > 100 µM
- TGI (OVCAR-5 ovarian): > 100 µM
- TGI (OVCAR-8 ovarian): > 100 µM
- TGI (P388 leukemia): > 100 µM
- TGI (P388/ADR leukemia): > 100 µM
- TGI (RPMI-8226 leukemia): > 100 µM
- TGI (RXF 393 renal): > 100 µM
- TGI (SF-268 CNS): > 100 µM
- TGI (SF-295 CNS): > 100 µM
- TGI (SF-539 CNS): > 100 µM
- TGI (SK-MEL-2 melanoma): > 100 µM
- TGI (SK-MEL-28 melanoma): > 100 µM
- TGI (SK-MEL-5 melanoma): > 100 µM
- TGI (SK-OV-3 ovarian): > 100 µM
- TGI (SN12C renal): > 100 µM
- TGI (SN12K1 renal): > 100 µM
- TGI (SNB-19 CNS): > 100 µM
- TGI (SNB-75 CNS): > 93 µM
- TGI (SNB-78 CNS): > 100 µM
- TGI (SW-620 colon): > 100 µM
- TGI (U251 CNS): > 100 µM
- TGI (UACC-257 melanoma): > 100 µM
- TGI (UACC-62 melanoma): > 100 µM
- TGI (UO-31 renal): > 100 µM
- TGI (XF 498 CNS): > 100 µM
